# Laboratory results reported in patent US20220162215A1, “COMPOSITIONS AND METHODS OF USING THE SAME FOR TREATMENT OF NEURODEGENERATIVE AND MITOCHONDRIAL DISEASE” (MITOKININ, INC., priority 2019, published 2022).
# Like-named read-outs stand apart in the source and are kept apart here.
# Key:
# [1] = Solubility in 1× PBS; format: physicochemical
# [2] = test system: HeLa MKYP cells; test: Toxicity / cell death measured by DAPI staining (take-up); format: cell-based; details: for Max cell death at 25 uM compound, 1 uM FO / Cell death at 25 μM (no FO): Table 3 Supplement B
# Procedure: H2O2 treatment was performed as a control for cell death as measured by DAPI staining.
# (§1) Briefly, HeLa MKYP cells were plated at 10,000 cells/well in 96 well plates along with compounds at various concentrations. Following 16 hrs of incubation, cells were treated with 1 uM FCCP/oligomycin for 6 hours, then analyzed via FACS for the presence of mitochondria in lysosomes (as determined by an emissions spectrum shift from the pH-sensitive mtKeima tag).
# [3] = test system: HeLa MKYP cells; test: Human mitophagy assay (HeLa MKYP, mtKeima FACS, FCCP/oligomycin); format: cell-based
# Procedure: as §1, with “tag). Examples are shown in FIG. 1 through FIG. 13 below.” for “tag).”
# [4] = test system: Hela MKYP (Mito-Keima/YFP-Parkin) cells; test: Inspection of round cells; details: Tables 6A-6D
# Procedure: (§2) Briefly, the Hela MKYP (Mito-Keima/YFP-Parkin) cells were seeded at 10K cells/well. EP/MTK compounds were added at seeding (cells were still in suspension). The cells were incubated with the EP/MTK compounds for 16 hours, then 1 μM FCCP/oligomycin was added for 6 hours. Prior to harvesting, cells were scored by eye under 20× magnification for the presence or absence of crystalline or aggregated compound, or round cells.
# [5] = Visual inspection of crystallization; format: physicochemical; set-up: key: 1: yes crystals; 0: no crystals; details: Tables 5A-5D
# Procedure: as §2
# [6] = Table 3, read-out: Potency at 1 μM F/O toxin* (EC50 of mitophagy activation)
# [7] = Homo sapiens, HeLa, Table 3, read-out: Potency at 1 μM F/O toxin* (EC50 of mitophagy activation)
# [8] = Homo sapiens, HeLa, Table 3 Supplement B, read-out: Mitophagy EC50 (HeLa mKeima assay)
# [9] = Homo sapiens, HeLa, Table 3 Supplement A, as measured in Table 3, read-out: Potency (EC50 Max Mitophagy) (μM)*
SMILES,Toxicity (% positive for DAPI takeup @ 50 μM) ([2]; Table 3) [%],solubility [1] [µM],"Max cell death at 25 uM compound, 1 uM FO [2] [%]",Cell death at 25 μM (no FO) [2] [%],"EC50 [3, 7] [µM]","EC50 [3, 8] [µM]",Inspection of round cells ([4]; 1.6 μM),Inspection of round cells ([4]; 3.1 μM),Inspection of round cells ([4]; 6.3 μM),Inspection of round cells ([4]; 12.5 μM),Inspection of round cells ([4]; 25.0 μM),Inspection of round cells ([4]; 50.0 μM),Visual inspection of crystallization ([5]; 1.6 μM),Visual inspection of crystallization ([5]; 3.1 μM),Visual inspection of crystallization ([5]; 6.3 μM),Visual inspection of crystallization ([5]; 12.5 μM),Visual inspection of crystallization ([5]; 25.0 μM),Visual inspection of crystallization ([5]; 50.0 μM),"EC50 [3, 9] [µM]",Toxicity (% positive for DAPI take-up at 50 μM)* ([2]; Table 3 Supplement A) [%],also measured
C[C@H]1CCc2ccccc2[C@H]1Nc1ncnc2[nH]c(C(F)(F)F)cc12 [Compound 101],12.0,,,,,,,,,,,,,,,,,,,,"solubility ([1]; aqueous buffer): 7.79 µM; Max cell death at 25 uM compound, 1 uM FO ([2]; listed as EP-0037881): 12%; Cell death at 25 μM (no FO) ([2]; listed as EP-0037881): 6.45%; EC50 [3, 6]: > 50 µM; Mitophagy EC50 (HeLa mKeima assay) ([3]; Table 3 Supplement B): Minimal activity"
Oc1ccc2c(c1)CCC[C@H]2Nc1ncnc2[nH]c(C(F)(F)F)cc12 [Compound 110],11.0,102,11,3.32,4.4,4.38,,,,,,,,,,,,,,,
CN(C)[C@H]1CCc2ccccc2[C@@H]1Nc1ncnc2[nH]c(C(F)(F)F)cc12 [Compound 108],79.3,190,79.29,4.33,> 50,0.81,,,,,,,,,,,,,,,
Fc1ccc2c(c1)CCCC2Nc1ncnc2[nH]c(C(F)(F)F)cc12 (stereo not drawn) [Compound 109],30.1,1,30.1,3.27,> 50,1.06,,,,,,,,,,,,,,,
OC[C@H]1CCc2ccccc2[C@@H]1Nc1ncnc2[nH]c(C(F)(F)F)cc12 [Compound 95],30.9,9.07,30.87,9.83,5.5,5.55,,,,,,,,,,,,,,,
C[C@H](Nc1ncnc2[nH]c(C(F)(F)F)cc12)c1cncnc1 [Compound 44],,,,,3.1,,0,0,0,0,0,0,0,0,0,0,0,0,3.15,,Toxicity (% positive for DAPI take-up at 50 μM)* ([2]; human): 23.68%; Toxicity (% positive for DAPI takeup @ 50 μM) ([2]; human): 23.7%
CO[C@@H]1CCc2ccccc2[C@H]1Nc1ncnc2[nH]c(C(F)(F)F)cc12 [Compound 105],18.4,1,18.4,15.3,,22.1,,,,,,,,,,,,,,,
CCC(Nc1ncnc2[nH]c(C(F)(F)F)cc12)c1cncnc1 (stereo not drawn) [Compound 43],15.9,,,,18.8,,0,0,0,0,0,0,0,0,0,0,0,0,18.8,15.86,
CO[C@@H]1COc2ccccc2[C@@H]1Nc1ncnc2[nH]c(C(F)(F)F)cc12 [Compound 96],12.1,23.8,12.11,3.4,1.6,1.63,,,,,,,,,,,,,,,
COc1ccc2c(c1)[C@@H](Nc1ncnc3[nH]c(C(F)(F)F)cc13)CCC2 [Compound 86],3.2,1.2,,,,,,,,,,,,,,,,,,,"Max cell death at 25 uM compound, 1 uM FO ([2]; listed as EP-0037130): 3.18%; Cell death at 25 μM (no FO) ([2]; listed as EP-0037130): 1.18%; EC50 [3, 6]: 4 µM; EC50 ([3]; Table 3 Supplement B, listed as EP-0037130, read-out: Mitophagy EC50 (HeLa mKeima assay)): 3.99 µM"
CO[C@H]1COc2ccccc2[C@H]1Nc1ncnc2[nH]c(C(F)(F)F)cc12 [Compound 99],3.6,20.9,3.555,2.49,13.3,13.3,,,,,,,,,,,,,,,
C[C@H](Nc1ncnc2[nH]cnc12)c1ccccc1 [Compound 27],11.7,,,,2,,0,0,0,0,0,0,0,0,0,0,0,0,2.09,13.52,
C[C@@H](Nc1ncnc2[nH]c(C(F)(F)F)cc12)c1ccccc1 [Compound 38],63.7,,,,3.1,,0,0,0,0,0,1,0,0,0,0,0,0,3.62,52.58,
CCCCNc1ncnc2[nH]c(C(F)(F)F)c(C)c12 [Compound 68],11.9,,,,> 50,,0,0,0,0,0,0,0,0,0,0,0,0,> 25,11.94,
CN(C)C1CCC(CNc2ncnc3[nH]c(C(F)(F)F)cc23)CC1 (stereo not drawn) [Compound 50],5.2,,,,> 50,,0,0,0,0,0,0,0,0,0,0,0,0,,5.16,"Potency (EC50 Max Mitophagy) (μM)* ([3]; Table 3 Supplement A, as measured in Table 3): 0.01 µM"
C[C@@H](Nc1ncnc2[nH]cnc12)c1ccccc1 [Compound 52],10.1,,,,> 50,,0,0,0,0,0,0,0,0,0,0,0,0,> 25,,"Toxicity (% positive for DAPI take-up at 50 μM)* ([2]; Table 3 Supplement A, listed as EP-0036297): 10.14%"
